Reference: patent US20190055576A1, “USE OF HERBICIDE-TOLERANT PROTEIN” (BEIJING DABEINONG TECHNOLOGY GROUP CO., LTD., priority 2016, published 2019)

Columns and labels:
[1] = tested on: wild-type soybean plants (CK1); assay: Glyphosate tolerance of wild-type soybean plants, herbicide damage rate; format: in vivo; conditions: 840 g ae/ha, 1-fold field concentration, 14 days after spraying
Text: (§1) The herbicide tolerance effects of Gm cytoplasmic ALT-1-01 soybean plants, Gm chloroplastic ALT-1-01 soybean plants, Gm cytoplasmic ALT-2-01 soybean plants, Gm chloroplastic ALT-2-01 soybean plants, Gm cytoplasmic ALT-3-01 soybean plants, Gm chloroplastic ALT-3-01 soybean plants and wild-type soybean plants on glyphosate were detected (at seedling stage), respectively.
(§2) 2 strains from Gm cytoplasmic ALT-1-01 soybean plants, Gm chloroplastic ALT-1-01 soybean plants, Gm cytoplasmic ALT-2-01 soybean plants, Gm chloroplastic ALT-2-01 soybean plants, Gm cytoplasmic ALT-3-01 soybean plants, Gm chloroplastic ALT-3-01 soybean plants and wild-type soybean plants were respectively taken each, and 10-15 plants were selected from each strain and tested. The plants above were sprayed with glyphosate (840 g ae/ha, 1-fold field concentration) and a blank solvent (water). The herbicide damage rate was measured for each plant according to the phytotoxicity symptoms 14 days after spraying (14 DAT): herbicide damage rate (%)=Σ(number of damaged plants at the same level×level number)/(total number of plants×highest level).

[2] = tested on: transgenic soybean plants (Gm cytoplasmic/chloroplastic ALT-1-01, ALT-2-01, ALT-3-01); assay: Glyphosate tolerance of transgenic soybean plants (ALT + EPSPS), herbicide damage rate; format: in vivo; conditions: 840 g ae/ha, 1-fold field concentration, 14 days after spraying
Text: as §1, §2

## O=C(O)CNCP(=O)(O)O [glyphosate, N-phosphonomethylglycine]
[1]
  glyphosate herbicide damage rate: not less than 90%
[2]; Gm chloroplastic ALT-1-01 soybean plants
  glyphosate herbicide damage rate: ~0%
[2]; Gm chloroplastic ALT-2-01 soybean plants
  glyphosate herbicide damage rate: ~0%
[2]; Gm chloroplastic ALT-3-01 soybean plants
  glyphosate herbicide damage rate: ~0%
[2]; Gm cytoplasmic ALT-1-01 soybean plants
  glyphosate herbicide damage rate: ~0%
[2]; Gm cytoplasmic ALT-2-01 soybean plants
  glyphosate herbicide damage rate: ~0%
[2]; Gm cytoplasmic ALT-3-01 soybean plants
  glyphosate herbicide damage rate: ~0%
